Measured values as given in ChEMBL document CHEMBL1201862, “PubChem BioAssay data set” (2004).
Calls of active or inactive are those of the source.

Tests used:
[1] = biological target: T1, Tyrosine-protein phosphatase non-receptor type 7 (Homo sapiens, UniProt P35236); type: functional
T1 sequence (P35236 whole entry): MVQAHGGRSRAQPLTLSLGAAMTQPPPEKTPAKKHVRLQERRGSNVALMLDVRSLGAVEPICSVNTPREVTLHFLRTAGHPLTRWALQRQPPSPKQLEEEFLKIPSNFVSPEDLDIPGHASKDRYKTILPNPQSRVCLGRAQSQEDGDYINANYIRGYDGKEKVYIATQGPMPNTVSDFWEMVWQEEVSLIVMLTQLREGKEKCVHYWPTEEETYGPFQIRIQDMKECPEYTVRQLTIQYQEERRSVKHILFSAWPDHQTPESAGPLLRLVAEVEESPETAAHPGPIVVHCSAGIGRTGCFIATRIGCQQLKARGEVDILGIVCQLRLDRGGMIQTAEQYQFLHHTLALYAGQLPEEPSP

[2] = biological target: T1, Tyrosine-protein phosphatase non-receptor type 7; experiment: HTS HePTP Fluorescent Assay using OMFP substrate for In Vitro dose response studies. [Related pubchem assays (depositor defined):AID1059, AID1077, AID1784, AID2068, AID2085, AID435032, AID521]; type: functional
[3] = biological target: T2, Tyrosine-protein phosphatase non-receptor type 22 (Homo sapiens, UniProt Q9Y2R2); experiment: SAR LYP1 Fluorescent Assay using pCAP substrate for In Vitro dose response studies - Set 2. [Related pubchem assays (depositor defined):AID1779, AID1784, AID2135, AID449727]; type: functional
T2 sequence (Q9Y2R2 whole entry): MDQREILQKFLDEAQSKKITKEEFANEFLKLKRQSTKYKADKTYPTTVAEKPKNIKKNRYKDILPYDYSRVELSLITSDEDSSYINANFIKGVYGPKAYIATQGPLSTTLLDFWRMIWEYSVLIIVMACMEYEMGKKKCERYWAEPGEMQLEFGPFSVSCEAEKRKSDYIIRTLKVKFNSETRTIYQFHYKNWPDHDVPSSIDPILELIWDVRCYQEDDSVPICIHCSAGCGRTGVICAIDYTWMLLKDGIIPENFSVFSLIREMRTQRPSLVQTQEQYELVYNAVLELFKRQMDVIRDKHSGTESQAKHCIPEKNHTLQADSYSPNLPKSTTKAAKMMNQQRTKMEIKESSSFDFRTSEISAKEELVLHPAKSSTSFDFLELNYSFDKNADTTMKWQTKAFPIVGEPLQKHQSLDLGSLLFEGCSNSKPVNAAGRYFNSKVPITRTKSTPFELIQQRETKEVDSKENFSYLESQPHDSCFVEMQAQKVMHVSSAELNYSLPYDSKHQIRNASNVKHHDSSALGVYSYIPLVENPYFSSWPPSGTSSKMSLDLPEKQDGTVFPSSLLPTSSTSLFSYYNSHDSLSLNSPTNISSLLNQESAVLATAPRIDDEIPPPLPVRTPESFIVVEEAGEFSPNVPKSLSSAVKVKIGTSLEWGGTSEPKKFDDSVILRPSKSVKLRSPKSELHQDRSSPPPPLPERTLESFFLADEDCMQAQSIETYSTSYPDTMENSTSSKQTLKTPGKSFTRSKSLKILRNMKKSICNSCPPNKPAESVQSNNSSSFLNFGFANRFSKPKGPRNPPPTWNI

[4] = biological target: T1, Tyrosine-protein phosphatase non-receptor type 7; experiment: inhibition of hematopoietic tyrosine phosphatase HePTP – biochemical, set 2, SAR follow-up (AID 449736); type: functional
[5] = biological target: T2, Tyrosine-protein phosphatase non-receptor type 22; experiment: PubChem AID 2140
[6] = Luminescence Cell-Based Dose Response HTS to Identify Activators of Luciferase Translation or Activity in H4 […] Cells. [Related pubchem assays: 1829 (Project Summary), 1814 (Primary HTS)]; type: functional
[7] = biological target: T3, Mannose-6-phosphate isomerase (Homo sapiens, UniProt P34949); experiment: MPI enzyme activity inhibition – biochemical, fluorescence intensity, coupled assay, primary screen (AID 1209)
T3 sequence (P34949 whole entry): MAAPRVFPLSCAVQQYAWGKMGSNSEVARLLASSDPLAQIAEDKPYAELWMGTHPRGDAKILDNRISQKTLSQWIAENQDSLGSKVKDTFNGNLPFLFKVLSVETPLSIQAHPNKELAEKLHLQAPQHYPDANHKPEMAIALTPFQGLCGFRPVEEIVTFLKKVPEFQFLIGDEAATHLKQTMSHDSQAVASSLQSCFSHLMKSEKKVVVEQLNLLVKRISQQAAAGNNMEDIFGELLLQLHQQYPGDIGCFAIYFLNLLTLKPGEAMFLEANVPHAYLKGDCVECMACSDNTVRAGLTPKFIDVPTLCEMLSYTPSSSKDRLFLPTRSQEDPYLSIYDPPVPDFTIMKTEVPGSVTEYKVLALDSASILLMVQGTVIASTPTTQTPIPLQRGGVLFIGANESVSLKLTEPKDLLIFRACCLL

[8] = viability loss of HPDE-C7K cells – cell-based, fluorescence, HTS, primary screen (AID 431); type: functional; conditions: Homo sapiens
[9] = viability of PTEN-deleted HCT116 cells – cell-based, HCT116 PTEN knockout, dose response (AID 1047); type: functional;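 also: HCT116 colon tumor cells with PTEN knocked out; cells exposed to compound for 60 hours before readout; potency for loss of cell viability measured by luminescence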
[10] = NIH3T3 cell viability loss – ATP luminescence, mouse fibroblasts, counter-screen, dose response (AID 2010); type: functional, cell-based;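 also: cells exposed to compound for about 90 hours before reading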
Caspase-3 = biological target: T4, Caspase-3 (Homo sapiens, UniProt P42574); type: functional;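 also: Dose-response selectivity test against caspase-3 for candidate inhibitors of sentrin-specific proteases (SENPs)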
T4 sequence (P42574 whole entry): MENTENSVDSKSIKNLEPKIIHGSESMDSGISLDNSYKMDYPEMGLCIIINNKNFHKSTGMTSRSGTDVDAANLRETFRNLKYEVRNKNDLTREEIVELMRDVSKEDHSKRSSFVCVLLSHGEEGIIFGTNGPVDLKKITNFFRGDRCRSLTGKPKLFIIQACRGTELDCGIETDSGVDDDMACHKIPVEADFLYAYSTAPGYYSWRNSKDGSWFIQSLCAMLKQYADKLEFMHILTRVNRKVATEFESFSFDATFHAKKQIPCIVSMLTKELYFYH

[11] = biological target: T5, Sentrin-specific protease 8 (Homo sapiens, UniProt Q96LD8); type: functional;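 also: luminescence read-out of SENP8 inhibition, dose-response confirmation following an ultra-high-throughput screen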
T5 sequence (Q96LD8 whole entry): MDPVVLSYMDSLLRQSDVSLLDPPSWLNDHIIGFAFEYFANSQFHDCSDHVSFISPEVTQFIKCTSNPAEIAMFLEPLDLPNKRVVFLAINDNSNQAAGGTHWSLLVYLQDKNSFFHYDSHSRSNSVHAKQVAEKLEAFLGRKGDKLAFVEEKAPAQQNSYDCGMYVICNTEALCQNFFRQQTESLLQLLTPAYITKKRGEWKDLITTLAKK

Vero = experiment: viability of Vero cells under compound – cytotoxicity control for flavivirus capping enzyme inhibitors (AID 588742); type: functional; conditions: Chlorocebus sabaeus

| Compound | IC50 [1] | IC50 [2] | IC50 [3] | IC50 [4] | IC50 [5] | EC50 [6] | IC50 [7] | EC50 [8] | EC50 [9] | EC50 [10] | IC50 (Caspase-3) | IC50 [11] | CC50 (Vero) |
| --- | --- | --- | --- | --- | --- | --- | --- | --- | --- | --- | --- | --- | --- |
| COc1ccc(/C=C2\SC(=S)N(CCC(=O)Nc3ccc(C(=O)O)cc3)C2=O)cc1OC | 3.78 µM (active) | 5.64 µM (active) | 1.38 µM (active) | 0.312 µM (active) | 7.46 µM (active) |  |  |  |  |  |  |  |  |
| COc1ccc(Nc2ccc3c(c2)=NC2(CCCCC2)[N+]=3[O-])cc1 |  |  |  |  |  | > 120 µM (not active) | > 50 µM (not active) | 8.16 µM (active) | 2.49 µM (active) | 9.19 µM (active) | 88.4 µM (active) | 14.8 µM (active) | 10.8 µM (active) |
